Active and inactive are the calls of the source.
Columns and labels:
Assay type in all cases: functional, cell-based
Conditions in all cases: Homo sapiens
[1] = test system: CCRF-CEM; experiment: Compound was tested for the inhibition of HIV-1 replication in CEM cell culture up to 100 ug/mL concentration; Not active
[2] = test system: CCRF-CEM; experiment: Compound was tested for toxicity to the CEM cell monolayers; No toxicity
[3] = test system: CCRF-CEM; experiment: Compound was tested for the inhibition of HIV-2 replication in CEM cell culture up to 100 ug/mL concentration; Not active

Cc1cn(C2C=CC(OCP(=O)(O)O)CO2)c(=O)[nH]c1=O (stereo not drawn)
inactive: inhibition [1] | Toxicity [2] Not toxic | inhibition [3]

— ChEMBL document CHEMBL1127776, “Stereospecific synthesis of a pentopyranosyl analogue of d4T monophosphate” (Bioorg Med Chem Lett, 1994)
